Reference: publication PMC8226839, “New Perspectives in the Antimicrobial Activity of the Amphibian Temporin B: Peptide Analogs Are Effective Inhibitors of Candida albicans Growth” (Journal of Fungi, 2021)
Where two headings read alike, the source gives them in different places. Square brackets hold non-standard residues; d marks the D form. Peptide text beside a SMILES is read from it.

Columns and labels:
Candida albicans [1] = conditions: 24 h
Staphylococcus aureus = conditions: 24 h
Candida glabrata = conditions: 24 h
in vitro = format: cell-based; conditions: human, 3D Phenion OS-REp reconstructed epidermis model
Description: The TB peptide analogs were tested for their skin irritation potential in vitro using the three-dimensional (3D) Phenion® open-source reconstructed epidermis model (Henkel, Düsseldorf, Germany) with slight adaptation from Groeber et al. and Mewes et al. [22, 23] and the test guidelines 439 of the Organization for Economic Cooperation and Development (OECD) [24]. In brief, the epidermal tissue models were equilibrated in 6-well plates ([…] , Hamburg, Germany) with 1.5 mL of Phenion® OS_REp air-liquid interface (ALI) medium (Henkel, Düsseldorf, Germany) for 24 h at 37 °C, 5% (v/v) CO2. Then, the medium was replaced by fresh medium and 25 μL Dulbecco's phosphate-buffered saline (D-PBS) containing 50 μg of the peptide, respectively, was dispensed directly on top of the models and spread gently over the surface with sterile glass applicators. […] All samples and controls were prepared in triplicates. After incubation at 25 °C for 35 min, each model was thoroughly dipped six times in 1 L of D-PBS. […] From each tissue sample, 200 μL of the formazan extraction solution were transferred in duplicates to a 96-well microtiter plate and the optical density was measured in a multimode plate reader (FLUOstar Omega, BMG Labtech, Ortenberg, Germany) at a wavelength of 550 nm. The relative metabolic activity was calculated from two replicates per tissue and three tissues per assay.

Candida parapsilosis = conditions: 24 h
C. albicans cells = format: cell-based, Candida albicans
Description: (§1) At the time points 5 min, 6 h and 24 h, aliquots were taken and plated in appropriate dilutions onto PDA plates in duplicates to stimulate the growth of viable cells. The colony-forming units (CFU) were counted after incubation at 30 °C for 24 h. […] To determine the efficacy of the TB peptide analogs on sessile C. albicans cells, biofilm formation was induced by adding 100 μL of C. albicans (1 × 10^6 cells mL^−1) in 0.05 × PDB to each well of a 96-well, flat-bottom microtiter plate (Nunclon Delta, Thermo Fisher Scientific, Waltham, MA, USA) and incubating for 24 h at 30 °C. The formed biofilm was then evaluated microscopically for cell attachment and pseudo-hyphae formation before proceeding with peptide application. The serially diluted TB peptide analogs (in 0.05 × PDB) were added to the biofilm in 100 μL aliquots to reach a final volume of 200 μL per well. For the positive control, 10 µg mL^−1 Amphotericin B (Sigma-Aldrich, St. Louis, MO, USA) was used, while 0.05 × PDB was added to the growth control. After further incubation for 24 h at 30 °C, the biofilm was disrupted by vigorous pipetting, and 20 µL of the detached cells were mixed with 80 µL of 0.05 × PDB. […] The effectiveness of the TB peptide analogs to reduce biofilm formation was calculated by comparing the number of CFU at different peptide concentrations with that of the untreated growth control. […]

[2] = test system: Candida albicans 27700 (fluconazole-resistant clinical isolate); conditions: 27700 (fluconazole-resistant clinical isolate, 24 h)
[3] = test system: sessile C. albicans cells (biofilm); test: Survival of sessile cells of a 24 h old biofilm (CFU plating); format: cell-based, Candida albicans; conditions: 10 µg mL^−1, 24 h exposure; untreated growth control 100%
Description: as §1

Candida albicans [4] = test: microbe, parasite or virus in culture
IL-1α = test: Release of proinflammatory cytokine IL-1α from Phenion OS-REp model (ELISA); conditions: culture medium 24 h after 35 min exposure; 50 μg peptide per model (SDS 5% w/v)
C. albicans = test: Broth microdilution, impact of protease inactivation conditions (growth %); format: cell-based, Candida albicans; conditions: 0.125 µM protease alone + 100 °C, 15 min

Compound	IC90 (Candida albicans [1]) [µM]	IC90 (Staphylococcus aureus) [µM]	IC90 (Candida glabrata) [µM]	viability at 35 min, 2000 µg/mL (in vitro) [%]	IC90 (Candida parapsilosis) [µM]	IC90 [2] [µM]	also measured
CC[C@H](C)[C@H](NC(=O)[C@@H]1CCCN1C(=O)[C@H](CC(C)C)NC(=O)[C@H](CC(C)C)NC(=O)[C@H](CCCCN)NC(=O)[C@H](CCCCN)NC(=O)[C@H](CCCCN)NC(=O)[C@@H](N)CCCCN)C(=O)N[C@H](C(=O)N[C@@H](CC(N)=O)C(=O)N[C@@H](CC(C)C)C(=O)N[C@@H](CC(C)C)C(=O)N[C@@H](CO)C(=O)N[C@@H](CC(C)C)C(=O)N[C@@H](CC(C)C)C(N)=O)C(C)C [TB_KKG6K^scrambled] (H-KKKKLLPIVNLLSLL-NH2; N-terminus assumed)	1.8	7.2					
CC[C@H](C)[C@H](NC(=O)[C@@H]1CCCN1C(=O)[C@H](CC(C)C)NC(=O)[C@H](CC(C)C)NC(=O)[C@H](CCCCN)NC(=O)[C@@H](N)CCCCN)C(=O)N[C@H](C(=O)N[C@@H](CCCCN)C(=O)N[C@@H](CC(N)=O)C(=O)N[C@@H](CC(C)C)C(=O)N[C@@H](CC(C)C)C(=O)N[C@@H](CCCCN)C(=O)N[C@@H](CO)C(=O)N[C@@H](CC(C)C)C(=O)N[C@@H](CC(C)C)C(N)=O)C(C)C [TB_KKG6K] (H-KKLLPIVKNLLKSLL-NH2)	1.8	3.6	1.8	94.2 ± 2.9	1.8	1.8	killing (CFU) (C. albicans cells; 6 h): 100%
CC[C@H](C)[C@H](NC(=O)[C@@H]1CCCN1C(=O)[C@H](CC(C)C)NC(=O)[C@H](CC(C)C)NC(=O)[C@@H](CCCCN)NC(=O)[C@H](N)CCCCN)C(=O)N[C@H](C(=O)N[C@H](CCCCN)C(=O)N[C@@H](CC(N)=O)C(=O)N[C@@H](CC(C)C)C(=O)N[C@@H](CC(C)C)C(=O)N[C@H](CCCCN)C(=O)N[C@@H](CO)C(=O)N[C@@H](CC(C)C)C(=O)N[C@@H](CC(C)C)C(N)=O)C(C)C [D-Lys_TB_KKG6K] (H-[dK][dK]LLPIV[dK]NLL[dK]SLL-NH2)	1.8	14.4	1.8	91.4 ± 2.9	1.8	1.8	killing (CFU) (C. albicans cells; 24 h): 100%
C[C@@H]1[C@H](O)[C@@H](C)/C=C/C=C/C=C/C=C/C=C/C=C/C=C/[C@H](O[C@@H]2O[C@H](C)[C@@H](O)[C@H](N)[C@@H]2O)C[C@@H]2O[C@](O)(C[C@@H](O)C[C@@H](O)[C@H](O)CC[C@@H](O)C[C@@H](O)CC(=O)O[C@H]1C)C[C@H](O)[C@H]2C(=O)O [Amphotericin B]							CFU [%] [3]: 0 ± 0 %; IC90 (Candida albicans [4]): 0.055 µg/mL; IC90 (Candida albicans [4]; 24 h): 0.06 µM
CCCCCCCCCCCCOS(=O)(=O)[O-].[Na+] [5% SDS, sodium dodecyl sulfate]							IL-1α (IL-1α): 199.2 ± 47.7 pg/mL
Chymotrypsin							Growth [%] (C. albicans): 76.1 ± 6.9%
